# Reference: patent US9714244B2, “Substituted pyrido[4,3-d]pyrimidines as Wee-1 inhibitors” (ALMAC DISCOVERY LIMITED, priority 2013, dated 2017)
# Columns and labels:
# [1] = target: FGFR1 (Homo sapiens (Human), UniProt P11362); assay: SelectScreen Kinase Profiling: FGFR1; format: biochemical; details: 300-350 nM
# From the text: (§1) Table 2 below highlights the selectivity of a representative compound of the invention against a panel of 50 kinases (assessed using the Invitrogen SelectScreen® Kinase Profiling Service).
# [2] = target: MAPK14 (p38 alpha) (Homo sapiens (Human), UniProt Q16539); assay: SelectScreen Kinase Profiling: MAPK14; format: biochemical; details: 300-350 nM
# From the text: as §1
# [3] = target: FLT3 (Homo sapiens (Human), UniProt P36888); assay: SelectScreen Kinase Profiling: FLT3; format: biochemical; details: 300-350 nM
# From the text: as §1
# [4] = target: ABL1 (Homo sapiens (Human), UniProt P00519); assay: SelectScreen Kinase Profiling: ABL1; format: biochemical; details: 300-350 nM
# From the text: as §1
# [5] = target: IKBKB (IKK beta) (Homo sapiens (Human), UniProt O14920); assay: SelectScreen Kinase Profiling: IKBKB; format: biochemical; details: 300-350 nM
# From the text: as §1
# [6] = target: CSNK1G2 (CK1 gamma 2) (Homo sapiens (Human), UniProt P78368); assay: SelectScreen Kinase Profiling: CSNK1G2; format: biochemical; details: 300-350 nM
# From the text: as §1
# [7] = target: ROCK1 (Homo sapiens (Human), UniProt Q13464); assay: SelectScreen Kinase Profiling: ROCK1; format: biochemical; details: 300-350 nM
# From the text: as §1
# [8] = target: CDK1/cyclin B (Homo sapiens (Human), UniProt P06493); assay: SelectScreen Kinase Profiling: CDK1/cyclin B; format: biochemical; details: 300-350 nM
# From the text: as §1
# [9] = target: NTRK1 (TRKA) (Homo sapiens (Human), UniProt P04629); assay: SelectScreen Kinase Profiling: NTRK1; format: biochemical; details: 300-350 nM
# From the text: as §1
# [10] = target: KIT (Homo sapiens (Human), UniProt P10721); assay: SelectScreen Kinase Profiling: KIT; format: biochemical; details: 300-350 nM
# From the text: as §1
# [11] = target: PHKG2 (Homo sapiens (Human), UniProt P15735); assay: SelectScreen Kinase Profiling: PHKG2; format: biochemical; details: 300-350 nM
# From the text: as §1
# [12] = target: SYK (Homo sapiens (Human), UniProt P43405); assay: SelectScreen Kinase Profiling: SYK; format: biochemical; details: 300-350 nM
# From the text: as §1
# [13] = target: MAP4K4 (HGK) (Homo sapiens (Human), UniProt O95819); assay: SelectScreen Kinase Profiling: MAP4K4; format: biochemical; details: 300-350 nM
# From the text: as §1
# [14] = target: PIM1 (Homo sapiens (Human), UniProt P11309); assay: SelectScreen Kinase Profiling: PIM1; format: biochemical; details: 300-350 nM
# From the text: as §1
# [15] = test system: phospho-cdc2 (Tyr15) in HT-29 cells; assay: Effect on phosphorylation of cdc2 at Tyr15 in HT-29 cells (PathScan ELISA); format: cell-based; details: Homo sapiens, HT-29, 8 h; HT29 cells, eight hours incubation; read-out: HT29 pCDC2 activity
# [16] = target: TEK (Tie2) (Homo sapiens (Human), UniProt Q02763); assay: SelectScreen Kinase Profiling: TEK; format: biochemical; details: 300-350 nM
# From the text: as §1
# [17] = target: AURKA (Aurora A) (Homo sapiens (Human), UniProt O14965); assay: SelectScreen Kinase Profiling: AURKA; format: biochemical; details: 300-350 nM
# From the text: as §1
# [18] = target: RET (Homo sapiens (Human), UniProt P07949); assay: SelectScreen Kinase Profiling: RET; format: biochemical; details: 300-350 nM
# From the text: as §1
# PIM1, sequence (P11309 whole entry): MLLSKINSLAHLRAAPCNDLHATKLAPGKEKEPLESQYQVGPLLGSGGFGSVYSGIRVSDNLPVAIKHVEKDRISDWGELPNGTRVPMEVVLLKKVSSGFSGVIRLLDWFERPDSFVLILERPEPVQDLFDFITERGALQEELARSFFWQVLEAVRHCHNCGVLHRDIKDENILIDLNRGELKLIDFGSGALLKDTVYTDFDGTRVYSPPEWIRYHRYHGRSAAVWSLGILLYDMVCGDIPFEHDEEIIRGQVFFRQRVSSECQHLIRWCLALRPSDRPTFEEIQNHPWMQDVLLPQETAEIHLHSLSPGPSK
# RET, sequence (P07949 29-1114): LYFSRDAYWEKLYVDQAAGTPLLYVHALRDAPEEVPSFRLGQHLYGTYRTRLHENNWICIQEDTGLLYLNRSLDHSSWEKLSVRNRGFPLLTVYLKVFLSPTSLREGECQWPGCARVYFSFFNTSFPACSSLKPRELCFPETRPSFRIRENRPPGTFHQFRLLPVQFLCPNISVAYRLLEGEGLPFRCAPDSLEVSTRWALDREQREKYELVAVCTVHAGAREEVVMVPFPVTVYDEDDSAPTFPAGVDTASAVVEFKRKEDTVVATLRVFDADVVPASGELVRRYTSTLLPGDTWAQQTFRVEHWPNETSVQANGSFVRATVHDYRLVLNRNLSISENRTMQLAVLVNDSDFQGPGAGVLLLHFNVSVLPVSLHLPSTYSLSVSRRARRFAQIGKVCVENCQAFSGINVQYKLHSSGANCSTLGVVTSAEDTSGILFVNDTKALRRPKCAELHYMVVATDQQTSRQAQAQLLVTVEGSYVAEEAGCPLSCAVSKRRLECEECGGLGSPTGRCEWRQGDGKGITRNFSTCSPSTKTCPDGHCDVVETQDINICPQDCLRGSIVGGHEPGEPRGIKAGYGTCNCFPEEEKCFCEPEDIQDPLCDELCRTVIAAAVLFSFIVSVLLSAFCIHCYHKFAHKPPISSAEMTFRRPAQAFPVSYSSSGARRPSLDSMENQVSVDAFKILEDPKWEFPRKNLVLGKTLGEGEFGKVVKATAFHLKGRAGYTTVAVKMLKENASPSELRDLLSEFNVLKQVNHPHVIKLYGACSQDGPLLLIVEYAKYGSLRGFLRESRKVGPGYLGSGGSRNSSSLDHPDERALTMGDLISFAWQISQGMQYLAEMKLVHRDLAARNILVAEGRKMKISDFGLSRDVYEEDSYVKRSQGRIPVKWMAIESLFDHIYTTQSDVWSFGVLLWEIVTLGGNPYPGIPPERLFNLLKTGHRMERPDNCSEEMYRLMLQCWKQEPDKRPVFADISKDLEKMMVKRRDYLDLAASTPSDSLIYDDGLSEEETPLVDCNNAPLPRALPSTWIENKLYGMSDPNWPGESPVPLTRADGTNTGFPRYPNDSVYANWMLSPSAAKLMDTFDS
# IKBKB (IKK beta), sequence (O14920 whole entry): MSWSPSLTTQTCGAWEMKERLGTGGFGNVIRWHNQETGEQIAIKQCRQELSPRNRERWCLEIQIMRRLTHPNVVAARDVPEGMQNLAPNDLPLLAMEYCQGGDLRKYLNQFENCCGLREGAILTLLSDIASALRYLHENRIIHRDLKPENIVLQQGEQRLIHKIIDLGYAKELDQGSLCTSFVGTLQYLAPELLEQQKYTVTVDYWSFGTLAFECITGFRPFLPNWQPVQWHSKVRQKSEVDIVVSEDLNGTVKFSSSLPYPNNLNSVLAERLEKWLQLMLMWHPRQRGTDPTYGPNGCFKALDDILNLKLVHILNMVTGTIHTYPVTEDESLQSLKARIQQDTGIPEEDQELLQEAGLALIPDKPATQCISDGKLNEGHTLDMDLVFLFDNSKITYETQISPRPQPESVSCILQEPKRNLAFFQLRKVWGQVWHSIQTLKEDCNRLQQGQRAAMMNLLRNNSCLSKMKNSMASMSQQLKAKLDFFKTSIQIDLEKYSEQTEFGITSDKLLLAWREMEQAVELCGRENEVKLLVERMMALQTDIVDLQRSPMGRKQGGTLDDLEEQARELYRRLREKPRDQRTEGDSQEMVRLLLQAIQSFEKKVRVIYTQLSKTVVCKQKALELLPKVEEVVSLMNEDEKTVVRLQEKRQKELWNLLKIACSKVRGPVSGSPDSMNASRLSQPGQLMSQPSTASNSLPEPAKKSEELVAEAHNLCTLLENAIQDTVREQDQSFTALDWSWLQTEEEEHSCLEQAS
# NTRK1 (TRKA), sequence (P04629 33-796): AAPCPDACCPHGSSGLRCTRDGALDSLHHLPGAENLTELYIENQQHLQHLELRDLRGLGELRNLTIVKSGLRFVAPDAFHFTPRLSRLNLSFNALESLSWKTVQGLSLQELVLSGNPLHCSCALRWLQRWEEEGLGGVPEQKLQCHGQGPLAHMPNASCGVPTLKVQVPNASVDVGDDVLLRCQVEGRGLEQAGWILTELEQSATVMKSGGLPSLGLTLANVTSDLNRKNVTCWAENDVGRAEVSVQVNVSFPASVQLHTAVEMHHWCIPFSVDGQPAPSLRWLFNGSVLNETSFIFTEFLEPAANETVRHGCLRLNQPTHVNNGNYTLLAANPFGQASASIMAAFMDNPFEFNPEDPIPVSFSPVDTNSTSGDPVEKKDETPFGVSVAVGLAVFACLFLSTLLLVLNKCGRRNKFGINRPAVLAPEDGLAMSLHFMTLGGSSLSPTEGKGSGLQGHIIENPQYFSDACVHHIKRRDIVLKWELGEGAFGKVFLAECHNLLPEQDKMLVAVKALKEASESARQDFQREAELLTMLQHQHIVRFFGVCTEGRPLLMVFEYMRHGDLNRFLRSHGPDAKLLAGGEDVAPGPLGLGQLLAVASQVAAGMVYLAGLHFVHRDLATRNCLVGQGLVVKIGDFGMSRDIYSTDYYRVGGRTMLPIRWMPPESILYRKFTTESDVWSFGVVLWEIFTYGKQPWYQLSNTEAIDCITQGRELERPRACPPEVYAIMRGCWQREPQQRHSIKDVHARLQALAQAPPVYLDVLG
# AURKA (Aurora A), sequence (O14965 whole entry): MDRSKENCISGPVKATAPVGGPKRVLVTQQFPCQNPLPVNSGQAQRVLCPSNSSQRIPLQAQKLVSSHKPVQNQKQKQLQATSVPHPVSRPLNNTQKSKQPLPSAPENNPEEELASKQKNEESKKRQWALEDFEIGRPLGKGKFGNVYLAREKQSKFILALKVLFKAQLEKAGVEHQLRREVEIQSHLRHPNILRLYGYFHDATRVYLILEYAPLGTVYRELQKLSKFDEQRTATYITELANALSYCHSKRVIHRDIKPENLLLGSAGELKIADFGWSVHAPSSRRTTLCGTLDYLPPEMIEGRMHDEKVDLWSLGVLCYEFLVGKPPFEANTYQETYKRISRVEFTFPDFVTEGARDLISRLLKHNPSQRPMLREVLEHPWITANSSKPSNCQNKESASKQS
# CDK1/cyclin B, sequence (P06493 whole entry): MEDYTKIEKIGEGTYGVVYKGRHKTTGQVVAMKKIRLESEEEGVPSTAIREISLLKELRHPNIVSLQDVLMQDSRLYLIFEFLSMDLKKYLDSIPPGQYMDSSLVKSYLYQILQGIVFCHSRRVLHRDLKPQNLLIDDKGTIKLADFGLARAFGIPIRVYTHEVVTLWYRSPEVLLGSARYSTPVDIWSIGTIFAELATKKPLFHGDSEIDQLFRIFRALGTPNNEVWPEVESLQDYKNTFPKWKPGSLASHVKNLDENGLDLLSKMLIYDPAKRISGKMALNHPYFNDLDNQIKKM
# CDK1/cyclin B, sequence (P14635 whole entry partner): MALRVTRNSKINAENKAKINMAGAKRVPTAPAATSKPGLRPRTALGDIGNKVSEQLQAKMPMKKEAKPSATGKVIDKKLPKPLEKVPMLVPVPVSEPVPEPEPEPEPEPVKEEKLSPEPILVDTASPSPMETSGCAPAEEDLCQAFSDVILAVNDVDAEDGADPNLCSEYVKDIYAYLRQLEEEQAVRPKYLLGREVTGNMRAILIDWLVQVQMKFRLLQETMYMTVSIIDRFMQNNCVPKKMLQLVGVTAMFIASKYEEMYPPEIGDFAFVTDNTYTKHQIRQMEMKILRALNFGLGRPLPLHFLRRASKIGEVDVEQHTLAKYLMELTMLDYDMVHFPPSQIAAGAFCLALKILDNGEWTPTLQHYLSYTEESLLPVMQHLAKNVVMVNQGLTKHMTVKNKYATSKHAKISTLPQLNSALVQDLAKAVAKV
# FGFR1, sequence (P11362 22-822): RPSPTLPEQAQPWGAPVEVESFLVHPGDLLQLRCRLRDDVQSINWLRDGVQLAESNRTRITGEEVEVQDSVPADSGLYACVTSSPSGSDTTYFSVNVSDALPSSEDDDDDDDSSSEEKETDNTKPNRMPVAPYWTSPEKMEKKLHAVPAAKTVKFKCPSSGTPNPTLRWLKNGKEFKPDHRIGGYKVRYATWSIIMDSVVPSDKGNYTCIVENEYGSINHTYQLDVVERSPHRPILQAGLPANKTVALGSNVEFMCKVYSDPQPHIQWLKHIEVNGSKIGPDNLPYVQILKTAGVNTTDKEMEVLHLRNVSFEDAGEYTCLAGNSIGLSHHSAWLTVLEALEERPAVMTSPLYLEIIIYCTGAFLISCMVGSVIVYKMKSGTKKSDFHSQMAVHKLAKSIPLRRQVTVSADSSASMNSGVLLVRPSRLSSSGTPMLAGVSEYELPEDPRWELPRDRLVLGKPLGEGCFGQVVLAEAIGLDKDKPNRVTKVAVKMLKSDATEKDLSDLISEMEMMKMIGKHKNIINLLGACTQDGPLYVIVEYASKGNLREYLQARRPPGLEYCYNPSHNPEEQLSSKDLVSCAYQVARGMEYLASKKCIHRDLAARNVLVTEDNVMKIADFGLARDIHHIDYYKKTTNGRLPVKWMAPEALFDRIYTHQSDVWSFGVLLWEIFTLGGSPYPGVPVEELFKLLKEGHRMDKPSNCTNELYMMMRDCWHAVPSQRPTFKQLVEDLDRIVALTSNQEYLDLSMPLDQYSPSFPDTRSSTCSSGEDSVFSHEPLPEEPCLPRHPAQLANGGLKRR
smiles,measurement,setting,value
"O=c1c2cnc(Nc3ccc(N4CCNCC4)cc3)nc2ccn1-c1c(Cl)cccc1Cl [Example 1, 6-(2,6-Dichlorophenyl)-2-((4-(piperazin-1-yl)phenyl)amino)pyrido[4,3-d]pyrimidin-5(6H)-one]",Inhibition FGFR1,[1],− (Inhibition <75% @ 300-350 nM)
same,Inhibition MAPK14 (p38 alpha),[2],− (Inhibition <75% @ 300-350 nM)
same,Inhibition FLT3,[3],− (Inhibition <75% @ 300-350 nM)
same,Inhibition ABL1,[4],+ (Inhibition >75% at 300-350 nM)
same,Inhibition IKBKB (IKK beta),[5],− (Inhibition <75% @ 300-350 nM)
same,Inhibition CSNK1G2 (CK1 gamma 2),[6],− (Inhibition <75% @ 300-350 nM)
same,Inhibition ROCK1,[7],− (Inhibition <75% @ 300-350 nM)
same,Inhibition CDK1/cyclin B,[8],− (Inhibition <75% @ 300-350 nM)
same,Inhibition NTRK1 (TRKA),[9],− (Inhibition <75% @ 300-350 nM)
same,Inhibition KIT,[10],− (Inhibition <75% @ 300-350 nM)
same,Inhibition PHKG2,[11],− (Inhibition <75% @ 300-350 nM)
same,Inhibition SYK,[12],− (Inhibition <75% @ 300-350 nM)
same,Inhibition MAP4K4 (HGK),[13],− (Inhibition <75% @ 300-350 nM)
same,Inhibition PIM1,[14],− (Inhibition <75% @ 300-350 nM)
same,IC50,[15],≥ 1000 nM
same,Inhibition TEK (Tie2),[16],− (Inhibition <75% @ 300-350 nM)
same,Inhibition AURKA (Aurora A),[17],− (Inhibition <75% @ 300-350 nM)
same,Inhibition RET,[18],− (Inhibition <75% @ 300-350 nM)
